According to patent US10253060B2, “Terpenoid derivatives” (Daiichi Sankyo Company, Limited, priority 2013, dated 2019):

Columns and labels:
ARPE-19 cells = assay: Cytotoxicity, LDH-Cytotoxic Test in ARPE-19 cells; type: cell-based, human; details: 10 μM, approx. 16 hours, 3 wells
Procedure: ARPE-19 cells (human retinal pigment epithelium cell line, ATCC, catalog No. CRL-2302) were cultured (5% CO2, 37° C.). A DMEM/F12 (Life Technologies Japan Ltd., catalog No. 11330-032) mixed medium containing 10% inactivated FBS was used. The medium contained 100 units/mL (final concentration) penicillin and 100 μg/[…] (final concentration) streptomycin.
The ARPE-19 cells were seeded at 5000 cells/well in a 96-well plate. The amount of the medium was 50 μL. Approximately 3 hours later, 50 μL of a medium containing CDDO-Me or each of terpenoid derivatives A to H was added thereto, followed by culture for approximately 16 hours. Then, cytotoxicity was evaluated using LDH-Cytotoxic Test (Wako Pure Chemical Industries, Ltd., catalog No. 299-50601). The evaluation method followed the attached document. Each group consisted of 3 wells and was indicated as cytotoxicity at the concentration of 10 μM. The means thereof were 43% for CDDO-Me, 2% for terpenoid derivative A, 2% for terpenoid derivative B, 2% for terpenoid derivative C, 1% for terpenoid derivative D, 2% for terpenoid derivative E, 3% for terpenoid derivative F, 3% for terpenoid derivative G, and 1% for terpenoid derivative H. Terpenoid derivatives A to H were low in cytotoxicity as compared with CDDO-Me.

NQO1 = NQO1 assay in Hepa1c1c7 cells; type: cell-based, mouse; details: approx. 48 hours, mean of 3 wells
Procedure: Hepa1c1c7 cells (mouse hepatic cell line, ATCC, catalog No. CRL-2026) were cultured (5% CO2, 37° C.). A DMEM (Life Technologies Japan Ltd., catalog No. 11965-092) medium also containing 10% inactivated FBS was used. The medium contained 100 units/mL (final concentration) penicillin and 100 μg/[…] (final concentration) streptomycin. The NQO1 assay was conducted according to previous reports (Anal Biochem 1998; 169: 328-; and Methods Enzymol 2004; 382: 243-).
The Hepa1c1c7 cells were seeded at 10000 cells/well in a 96-well plate. The amount of the medium was 100 μL. Approximately 24 hours later, the medium was replaced with a medium containing CDDO-Me or each of terpenoid derivatives A to G, followed by further culture for approximately 48 hours. A lysis solution (a solution containing 2 mM EDTA and 0.8% digitonin), a reaction solution (a solution containing 0.025 M of tris-HCl, 0.067% of albumin, 0.01% of Tween-20, 2 U/mL of glucose-6-phosphate dehydrogenase, 5 μM of flavin adenine dinucleotide, 1 […], 30 μM of nicotinamide adenine dinucleotide phosphate, 0.03% of 3-(4,5-dimethyl-2-thiazolyl)-2,5-diphenyltetrazolium bromide (MTT), and 50 μM of menadione), and a stop solution (a solution containing 0.3 mM dicumarol and 5 mM potassium dihydrogen phosphate, pH 7.4) were prepared. After removal of the medium, 50 μL of the lysis solution was added thereto, and the mixture was left standing at 37° C. for 10 minutes. The reaction mixture was further shaken at room temperature for 10 minutes.
Two hundred μL of the solution was added thereto, and the mixture was left standing at room temperature for 5 minutes. Fifty μL of the stop solution was added thereto, and the absorbance at 490 nm was measured.
The test results were analyzed using Prism (GraphPad Software, Inc., Ver. 5) to calculate the CD value of the concentration at which the activity of NQO1 was increased 2-fold. Each group consisted of 3 wells and indicated as a mean of CD values.

Row | Compound | cytotoxicity (LDH-Cytotoxic Test), mean (ARPE-19 cells) [%] | CD value (concentration at which the activity of NQO1 was increased 2-fold) (NQO1) [nM]
1 | COC(=O)[C@]12CC[C@@](C)(CO)C[C@H]1[C@H]1C(=O)C=C3[C@@]4(C)[C@H]5O[C@@]5(C#N)C(=O)C(C)(C)[C@@H]4CC[C@@]3(C)[C@]1(C)CC2 [terpenoid derivative D] | 1 | 0.9
2 | CC1(C)C[C@H]2[C@H]3C(=O)C=C4[C@@]5(C)C6OC6(C#N)C(=O)C(C)(C)[C@@H]5CC[C@@]4(C)[C@]3(C)CC[C@@]2(C#N)CC1O (stereo partly shown) [terpenoid derivative F] | 3 | 0.1
3 | CC1(C)C[C@H]2[C@H]3C(=O)C=C4[C@@]5(C)C=C(C#N)C(=O)C(C)(C)[C@@H]5CC[C@@]4(C)[C@]3(C)CC[C@@]2(C#N)CC1O (stereo partly shown) [terpenoid derivative G] | 3 | 0.1
4 | CC1(C)CC(O)[C@]2(C(N)=O)CC[C@]3(C)[C@H](C(=O)C=C4[C@@]5(C)C6OC6(C#N)C(=O)C(C)(C)[C@@H]5CC[C@]43C)[C@@H]2C1 (stereo partly shown) [terpenoid derivative E] | 2 | 2.1
5 | COC(=O)[C@]12CCC(C)(C)C[C@H]1[C@H]1C(=O)C=C3[C@@]4(C)C5OC5(C#N)C(=O)C(C)(C)[C@@H]4CC(O)[C@@]3(C)[C@]1(C)CC2 (stereo partly shown) [terpenoid derivative H] | 1 | 
6 | COC(=O)[C@@]12CC[C@]3(C)[C@H](C(=O)C=C4[C@@]5(C)[C@H]6O[C@@]6(C#N)C(=O)C(C)(C)[C@@H]5CC[C@]43C)[C@@H]1CC(C)(C)C(=O)C2 [terpenoid derivative C] | 2 | 0.4
7 | COC(=O)[C@]12CC[C@](C)(CO)C[C@H]1[C@H]1C(=O)C=C3[C@@]4(C)[C@H]5O[C@@]5(C#N)C(=O)C(C)(C)[C@@H]4CC[C@@]3(C)[C@]1(C)CC2 [terpenoid derivative A] | 2 | 1.3
